Test systems include SN12C renal; UACC-257 melanoma; KM12 colon; EKVX NSCLC; SNB-19 CNS; SNB-75 CNS; NCI-H460 lung; NCI-H226 lung; MOLT-4 leukemia.
Assay in all cases: inhibition of tumour cell growth, NCI panel, 48 h

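Interpolation was linear, between the two tested concentrations surrounding the appropriate level; five concentrations were tested over 48 hours in 96-well plates. Abbreviation: GI50, concentration required for 50% inhibition of growth. TGI is the concentration that stops growth completely.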

As for `O=C(O)C1CCc2nnc(-c3ccccc3)n21` (centres undefined), the TGI in the assay with SN12C renal, with UACC-257 melanoma, in the assay on KM12 colon, in the assay with EKVX NSCLC, with SNB-19 CNS and with SNB-75 CNS was more than 100 µM throughout. In addition, the TGI in the assay with NCI-H460 lung, with NCI-H226 lung and in the assay with MOLT-4 leukemia was more than 100 µM throughout.
Regarding `COc1c(C2=NC(C(C)C)CO2)ccc2ccccc12` (centres undefined), the TGI in the assay with SN12C renal, in the assay with UACC-257 melanoma, in the assay with KM12 colon, in the assay on EKVX NSCLC, in the assay on SNB-19 CNS and with SNB-75 CNS was more than 100 µM each time. In addition, the results for the TGI in the assay with NCI-H460 lung, in the assay with NCI-H226 lung and in the assay with MOLT-4 leukemia were more than 100 µM, more than 100 µM and 50.3 µM, respectively.
As for `COc1ccc(CN2C(=O)C(Cc3cc(OC)c(OC)c(C)c3OC)NC(=O)/C2=C/c2cc(OC)c(OC)c(C)c2OC)cc1` (centres undefined), the TGI in the assay with SN12C renal is more than 100 µM; in the assay on UACC-257 melanoma, more than 100 µM; in the assay on KM12 colon, more than 100 µM; in the assay on EKVX NSCLC it was more than 100 µM; in the assay on SNB-75 CNS it was more than 100 µM; with NCI-H460 lung it was 57 µM. Moreover, the TGI was found to be 60.2 µM with NCI-H226 lung and 60.6 µM with MOLT-4 leukemia.
In the case of `Cc1nc2ccccc2c(=O)n1/N=C(\N=Nc1cc(Cl)ccc1Cl)c1cccc(-c2ccco2)c1`, the TGI with SN12C renal, in the assay with UACC-257 melanoma, in the assay on KM12 colon, in the assay with EKVX NSCLC, with SNB-19 CNS and in the assay on SNB-75 CNS was more than 100 µM in each case. The TGI in the assay with NCI-H460 lung, with NCI-H226 lung and with MOLT-4 leukemia was more than 100 µM each time.
As to `Cc1c(C(=O)CC(=O)C(=O)Nc2c(C(C)C)cccc2C(C)C)[n+](=O)c2ccccc2n1[O-]`, the TGI in the assay with SN12C renal is 12.2 µM; in the assay on UACC-257 melanoma it was 12.6 µM; with KM12 colon, 15.7 µM; in the assay on EKVX NSCLC it was 29 µM; with SNB-19 CNS, 37.9 µM; in the assay with SNB-75 CNS, 31.4 µM. Besides, the values for the TGI with NCI-H460 lung, with NCI-H226 lung and in the assay with MOLT-4 leukemia were 7.02 µM, 54.5 µM and 8.2 µM, respectively.
Regarding `O=C1c2ccccc2C(=O)C2C1C1C(=O)c3ccccc3C(=O)C21` (centres undefined), the TGI in the assay with SN12C renal, in the assay with UACC-257 melanoma, with KM12 colon, in the assay with EKVX NSCLC, in the assay with SNB-19 CNS and in the assay with SNB-75 CNS was more than 100 µM each time. Also, the TGI in the assay with NCI-H460 lung is more than 100 µM.
Consider `N#CCCN(CCC#N)C(=O)c1cccc(C(=O)N(CCC#N)CCC#N)c1`, for which the TGI with SN12C renal was more than 58.3 µM; in the assay on UACC-257 melanoma, more than 100 µM; in the assay with KM12 colon, more than 100 µM; in the assay on EKVX NSCLC, more than 63.9 µM; in the assay with SNB-19 CNS it was more than 100 µM; in the assay on SNB-75 CNS, more than 59.3 µM. For the same compound, the TGI with NCI-H460 lung is more than 64.8 µM; in the assay on MOLT-4 leukemia it was more than 100 µM.
Consider `CCCCSN1C(=O)c2ccccc2C1=S`, for which the TGI in the assay with SN12C renal, with UACC-257 melanoma, in the assay with KM12 colon, with EKVX NSCLC, in the assay on SNB-19 CNS and in the assay on SNB-75 CNS was more than 100 µM throughout. Besides, the TGI is more than 100 µM with NCI-H460 lung and 50.3 µM with MOLT-4 leukemia.
As to `COc1cc(=O)oc(/C=C/C=O)c1C`, the TGI with SN12C renal stood at 20.7 µM; with UACC-257 melanoma it was 35.4 µM; in the assay with KM12 colon, 38.2 µM; in the assay on EKVX NSCLC it was 94.6 µM; in the assay on SNB-19 CNS, 28.5 µM; with SNB-75 CNS it was 32.8 µM. For the same compound, the TGI with NCI-H226 lung stood at 90.9 µM; in the assay on MOLT-4 leukemia it was 77.3 µM.
On to `COC(=O)[C@H]1[C@H]2C[C@@H]3c4[nH]c5cc(OC)ccc5c4CCN3C[C@H]2C[C@@H](OC(=O)c2cc(OC)c(OC)c(OC)c2)[C@@H]1OC`, for which the TGI was found to be 42.1 µM in the assay on UACC-257 melanoma; 41.7 µM with KM12 colon; 41 µM with SNB-19 CNS; 10.2 µM in the assay on SNB-75 CNS; 59.9 µM in the assay with NCI-H460 lung; 66.7 µM in the assay on NCI-H226 lung. This compound also returned a TGI with MOLT-4 leukemia of 50.6 µM.
Regarding `CN(C)c1ccc2c(c1)CN1C(=O)c3ccccc3C1=N2`, the GI50 with SN12C renal, in the assay with UACC-257 melanoma, in the assay with KM12 colon, in the assay on SNB-19 CNS, in the assay with SNB-75 CNS and in the assay with NCI-H460 lung was more than 100 µM each time. Moreover, the GI50 in the assay with NCI-H226 lung and in the assay with MOLT-4 leukemia was more than 100 µM each time. For the same compound, the TGI in the assay with SN12C renal, in the assay on UACC-257 melanoma, in the assay with KM12 colon, with SNB-19 CNS, with SNB-75 CNS and with NCI-H460 lung was more than 100 µM each time. Also, the TGI in the assay on NCI-H226 lung and in the assay with MOLT-4 leukemia was more than 100 µM throughout.
On to `CC1(C)C(c2ccccc2)C12CCC1(C2=O)C(c2ccccc2)C1(C)C` (centres undefined), for which the TGI was found to be 73 µM in the assay on SN12C renal; 37.4 µM in the assay with UACC-257 melanoma; 69.3 µM in the assay on EKVX NSCLC; 76.5 µM in the assay with SNB-19 CNS; 90.1 µM in the assay on SNB-75 CNS; 36.3 µM in the assay with NCI-H226 lung. The TGI with MOLT-4 leukemia came out at 37.2 µM.
On to `CCOC(=O)c1cc(/C=C/C(C)=C/C(=O)OC)oc1-c1ccccc1`, for which the TGI in the assay with SN12C renal, in the assay on UACC-257 melanoma, in the assay on KM12 colon, in the assay on EKVX NSCLC, in the assay with SNB-19 CNS and with NCI-H460 lung was more than 100 µM each time. Also, the TGI in the assay on NCI-H226 lung and in the assay with MOLT-4 leukemia was more than 100 µM each time.
As for `O=C(CC(=O)c1ccc([N+](=O)[O-])cc1)C(=O)Nc1nccs1`, the TGI in the assay with SN12C renal, in the assay with KM12 colon, in the assay on EKVX NSCLC, in the assay on SNB-19 CNS, with SNB-75 CNS and in the assay on NCI-H460 lung was more than 100 µM in each case. The TGI in the assay on NCI-H226 lung and in the assay with MOLT-4 leukemia was more than 100 µM in each case.
For the compound `Nc1ncnc2c1ncn2C1OC(CSC(F)(F)F)C(O)C1O` (centres undefined), the TGI with SN12C renal, in the assay on UACC-257 melanoma, with KM12 colon, in the assay on EKVX NSCLC, with SNB-75 CNS and with NCI-H460 lung was more than 100 µM each time. For the same compound, the TGI in the assay with NCI-H226 lung and in the assay with MOLT-4 leukemia was more than 100 µM each time.
`C[C@@H](C1CCC2C3C(=CC(=O)[C@@]21C)[C@H](C)[C@]1(CCC(=O)O1)C1OC31)[C@H]1C[C@]2(C)O[C@@](C)(O1)OC2(C)C` (some centres undefined): the TGI in the assay with SN12C renal, in the assay with EKVX NSCLC, in the assay with SNB-19 CNS, in the assay on NCI-H460 lung and in the assay with MOLT-4 leukemia was more than 100 µM throughout.

Values taken from PubChem BioAssay (NCI).
